The values that follow come from patent publication US20220033397A1, “PHARMACEUTICAL COMPOUNDS AND THEIR USE AS INHIBITORS OF UBIQUITIN SPECIFIC PROTEASE 19 (USP19)” (ALMAC DISCOVERY LIMITED, priority 2018, published 2022).

In the experiment the target is T1, Full-length USP19 (Homo sapiens, UniProt O94966).
T1 construct: Full-length USP19 was purchased from Boston Biochem (E-576); purchased Boston Biochem E-576
T1 sequence (O94966 1-1318): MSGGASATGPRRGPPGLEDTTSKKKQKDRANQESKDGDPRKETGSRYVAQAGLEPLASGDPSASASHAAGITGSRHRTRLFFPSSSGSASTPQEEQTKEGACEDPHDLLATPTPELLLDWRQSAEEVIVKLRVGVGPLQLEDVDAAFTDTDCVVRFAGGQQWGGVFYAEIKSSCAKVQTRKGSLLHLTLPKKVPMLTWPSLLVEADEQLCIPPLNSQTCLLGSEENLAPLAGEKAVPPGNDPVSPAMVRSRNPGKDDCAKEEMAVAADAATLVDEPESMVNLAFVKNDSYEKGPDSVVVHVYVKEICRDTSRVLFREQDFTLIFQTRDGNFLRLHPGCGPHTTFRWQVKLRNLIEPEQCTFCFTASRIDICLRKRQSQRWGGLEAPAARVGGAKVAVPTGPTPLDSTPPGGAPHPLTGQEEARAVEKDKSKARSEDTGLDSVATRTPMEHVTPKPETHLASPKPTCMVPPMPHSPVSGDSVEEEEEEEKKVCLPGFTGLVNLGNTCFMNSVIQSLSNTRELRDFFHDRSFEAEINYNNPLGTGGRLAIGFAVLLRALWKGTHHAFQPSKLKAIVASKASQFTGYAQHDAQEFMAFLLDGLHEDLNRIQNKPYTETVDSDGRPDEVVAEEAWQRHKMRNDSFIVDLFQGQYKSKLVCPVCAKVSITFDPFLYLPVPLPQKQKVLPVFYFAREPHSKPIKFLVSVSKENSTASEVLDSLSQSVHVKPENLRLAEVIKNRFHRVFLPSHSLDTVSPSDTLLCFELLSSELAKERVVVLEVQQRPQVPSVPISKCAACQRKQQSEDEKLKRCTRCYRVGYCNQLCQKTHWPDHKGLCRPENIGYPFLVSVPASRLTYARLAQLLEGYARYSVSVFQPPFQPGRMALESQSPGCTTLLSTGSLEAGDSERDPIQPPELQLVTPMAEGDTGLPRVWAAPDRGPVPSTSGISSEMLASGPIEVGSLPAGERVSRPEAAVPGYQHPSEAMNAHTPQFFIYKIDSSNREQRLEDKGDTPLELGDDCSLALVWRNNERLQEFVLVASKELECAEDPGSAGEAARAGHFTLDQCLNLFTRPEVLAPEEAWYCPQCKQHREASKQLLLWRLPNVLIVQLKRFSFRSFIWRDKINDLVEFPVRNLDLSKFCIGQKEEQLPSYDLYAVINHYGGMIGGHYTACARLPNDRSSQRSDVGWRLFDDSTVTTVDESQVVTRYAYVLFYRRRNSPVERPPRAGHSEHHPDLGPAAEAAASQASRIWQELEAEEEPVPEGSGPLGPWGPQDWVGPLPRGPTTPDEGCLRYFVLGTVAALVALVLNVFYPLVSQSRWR
Nature of the experiment: USP19 fluorescence polarisation (FP) homogeneous assay with Ubiquitin-Lys-TAMRA substrate. It is filed as biochemical. As to conditions: 2.5 nM USP19, 30 min pre-incubation, average of at least two duplicate experiments. An outline of the steps: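 Full-length USP19 preincubated 30 min at RT with inhibitor (200 μM to 2 μM series, 8–18 points) before adding 500 nM Ubiquitin-Lys-TAMRA substrate.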

As for `O=C(N1CCC(O)(Cn2cnc(-c3ccccc3)cc2=O)C2(CCCC2)C1)N1CCC[C@H]1c1ncn[nH]1` (stereo partly drawn) [Example 268, 3-((7-((S)-2-(1H-1,2,4-Triazol-5-yl)pyrrolidine-1-carbonyl)-10-hydroxy-7-azaspiro[4.5]decan-10-yl)methyl)-6-phenylpyrimidin-4(3H)-one], the half-maximal inhibitory concentration (IC50) fell in the range of 50 to 250 µM.

For the molecule `Cc1nc([C@@H]2CCCN2C(=O)N2CCC(O)(Cn3cnc(-c4ccccc4)cc3=O)C3(CCCC3)C2)n[nH]1` (stereo partly drawn) [Example 269, 3-((10-Hydroxy-7-((S)-2-(5-methyl-1H-1,2,4-triazol-3-yl)pyrrolidine-1-carbonyl)-7-azaspiro[4.5]decan-10-yl)methyl)-6-phenylpyrimidin-4(3H)-one], the half-inhibitory concentration (IC50) was 50 to 250 µM.

Regarding `CC(C)c1coc([C@@H]2CCCN2C(=O)N2CCC(O)(Cn3cnc(-c4ccccc4)cc3=O)C3(CCCC3)C2)n1` (stereo partly drawn) [Example 270, 3-((10-Hydroxy-7-((S)-2-(4-isopropyloxazol-2-yl)pyrrolidine-1-carbonyl)-7-azaspiro[4.5]decan-10-yl)methyl)-6-phenylpyrimidin-4(3H)-one], the 50% inhibitory concentration (IC50) was in the range of 50 to 250 µM.

Consider `COc1ccccc1C1CNCCN1C(=O)N1CCC(O)(Cn2cnc(-c3ccccc3)cc2=O)C2(CCCC2)C1` (centres unmarked) [Example 271, 3-((10-Hydroxy-7-(2-(2-methoxyphenyl)piperazine-1-carbonyl)-7-azaspiro[4.5]decan-10-yl)methyl)-6-phenylpyrimidin-4(3H)-one], for which the half-maximal inhibitory concentration (IC50) lay within 50 to 250 µM.

`COc1cccc(C2CNCCN2C(=O)N2CCC(O)(Cn3cnc(-c4ccccc4)cc3=O)C3(CCCC3)C2)c1` (centres unmarked) [Example 272, 3-((10-Hydroxy-7-(2-(3-methoxyphenyl)piperazine-1-carbonyl)-7-azaspiro[4.5]decan-10-yl)methyl)-6-phenylpyrimidin-4(3H)-one]: the IC50 was 5 to 50 µM.

For the molecule `COc1ccc(C2CNCCN2C(=O)N2CCC(O)(Cn3cnc(-c4ccccc4)cc3=O)C3(CCCC3)C2)cc1` (centres unmarked) [Example 273, 3-((10-Hydroxy-7-(2-(4-methoxyphenyl)piperazine-1-carbonyl)-7-azaspiro[4.5]decan-10-yl)methyl)-6-phenylpyrimidin-4(3H)-one], the IC50 lay in the range of 5 to 50 µM.

For the molecule `O=C(N1CCC(O)(Cn2cnc(-c3ccccc3)cc2=O)C2(CCCC2)C1)N1CCNCC1c1cccnc1` (centres unmarked) [Example 274, 3-((10-Hydroxy-7-(2-(pyridin-3-yl)piperazine-1-carbonyl)-7-azaspiro[4.5]decan-10-yl)methyl)-6-phenylpyrimidin-4(3H)-one], the IC50 fell in the range of 0.5 to 5 µM.

As to `O=C(N1CCC(O)(Cn2cnc(-c3ccccc3)cc2=O)C2(CCCC2)C1)N1CCNCC1C1CC1` (centres unmarked) [Example 275, 3-((7-(2-Cyclopropylpiperazine-1-carbonyl)-10-hydroxy-7-azaspiro[4.5]decan-10-yl)methyl)-6-phenylpyrimidin-4(3H)-one], the IC50 lay in the range of 5 to 50 µM.

In the case of `O=C(N1CCC(O)(Cn2cnc(-c3ccccc3)cc2=O)C2(CCCC2)C1)N1CCNCC1C1CCC1` (centres unmarked) [Example 276, 3-((7-(2-Cyclobutylpiperazine-1-carbonyl)-10-hydroxy-7-azaspiro[4.5]decan-10-yl)methyl)-6-phenylpyrimidin-4(3H)-one], the IC50 lay in the range of 5 to 50 µM.

As to `COCC1CNCCN1C(=O)N1CCC(O)(Cn2cnc(-c3ccccc3)cc2=O)C2(CCCC2)C1` (centres unmarked) [Example 277, 3-((10-Hydroxy-7-(2-(methoxymethyl)piperazine-1-carbonyl)-7-azaspiro[4.5]decan-10-yl)methyl)-6-phenylpyrimidin-4(3H)-one], the IC50 lay within 50 to 250 µM.

For `O=C(N1CC[C@@](O)(Cn2cnc(-c3ccccc3)cc2=O)C2(CCCC2)C1)N1CCNC[C@H]1c1ccccc1` [Example 278, 3-(((S)-10-Hydroxy-7-((R)-2-phenylpiperazine-1-carbonyl)-7-azaspiro[4.5]decan-10-yl)methyl)-6-phenylpyrimidin-4(3H)-one], the IC50 was < 0.5 µM.

As for `CC(=O)N1CCN(C(=O)N2CC[C@@](O)(Cn3cnc(-c4ccccc4)cc3=O)C3(CCCC3)C2)[C@H](c2ccccc2)C1` [Example 279, 3-(((S)-7-((R)-4-Acetyl-2-phenylpiperazine-1-carbonyl)-10-hydroxy-7-azaspiro[4.5]decan-10-yl)methyl)-6-phenylpyrimidin-4(3H)-one], the IC50 is 0.5 to 5 µM.

As to `O=C(N1CCC(O)(Cn2ncc(-c3ccccc3)cc2=O)C2(CCCC2)C1)N1CCOC[C@H]1c1ccccc1` (stereo partly drawn) [Example 280, 2-((10-Hydroxy-7-((R)-3-phenylmorpholine-4-carbonyl)-7-azaspiro[4.5]decan-10-yl)methyl)-5-phenylpyridazin-3(2H)-one], the concentration for half-maximal inhibition (IC50) is < 0.5 µM.

On to `CN1CCN(C(=O)N2CC[C@@](O)(Cn3cnc(-c4ccccc4)cc3=O)C3(CCCC3)C2)[C@H](c2ccccc2)C1` [Example 281, 3-(((S)-10-Hydroxy-7-((R)-4-methyl-2-phenylpiperazine-1-carbonyl)-7-azaspiro[4.5]decan-10-yl)methyl)-6-phenylpyrimidin-4(3H)-one], for which the IC50 was < 0.5 µM.

For `O=C(N1CC[C@@](O)(Cn2cnc(Cl)cc2=O)C2(CCCC2)C1)N1CCOC[C@H]1c1ccc(F)cc1` [Example 282, 6-Chloro-3-(((S)-7-((R)-3-(4-fluorophenyl)morpholine-4-carbonyl)-10-hydroxy-7-azaspiro[4.5]decan-10-yl)methyl)pyrimidin-4(3H)-one], the half-inhibitory concentration (IC50) is < 0.5 µM.

With `CN(C)C(=O)c1cn(C[C@]2(O)CCN(C(=O)N3CCOC[C@H]3c3ccccc3)CC2(C)C)c(=O)cc1-c1ccccc1` [Example 283, 1-(((S)-4-Hydroxy-3,3-dimethyl-1-((R)-3-phenylmorpholine-4-carbonyl)piperidin-4-yl)methyl)-N,N-dimethyl-6-oxo-4-phenyl-1,6-dihydropyridine-3-carboxamide], the concentration for half-maximal inhibition (IC50) is < 0.5 µM.

As for `Cn1nccc1-c1cc(=O)n(C[C@]2(O)CCN(C(=O)N3CCOC[C@H]3c3ccc(F)cc3)CC23CCCC3)cn1` [Example 284, 3-(((S)-7-((R)-3-(4-Fluorophenyl)morpholine-4-carbonyl)-10-hydroxy-7-azaspiro[4.5]decan-10-yl)methyl)-6-(1-methyl-1H-pyrazol-5-yl)pyrimidin-4(3H)-one], the IC50 was < 0.5 µM.

For `Cn1cc(-c2cc(=O)n(C[C@]3(O)CCN(C(=O)N4CCOC[C@H]4c4ccc(F)cc4)CC34CCCC4)cn2)cn1` [Example 285, 3-(((S)-7-((R)-3-(4-Fluorophenyl)morpholine-4-carbonyl)-10-hydroxy-7-azaspiro[4.5]decan-10-yl)methyl)-6-(1-methyl-1H-pyrazol-4-yl)pyrimidin-4(3H)-one], the IC50 is < 0.5 µM.

Take `CC1(C)CN(C(=O)N2CCOC[C@H]2c2ccccc2)CC[C@@]1(O)Cn1ccc(-c2ccccc2)cc1=O` [Example 286]: the 50% inhibitory concentration (IC50) was < 0.5 µM.

`O=C(N1CC[C@@](O)(Cn2ccc(-c3ccccc3)cc2=O)C2(CCCC2)C1)N1CCNC[C@H]1c1ccccc1` [Example 287, 1-(((S)-10-Hydroxy-7-((R)-2-phenylpiperazine-1-carbonyl)-7-azaspiro[4.5]decan-10-yl)methyl)-4-phenylpyridin-2(1H)-one]: the IC50 is < 0.5 µM.

In the case of `CC1(C)CN(C(=O)N2CCNC[C@H]2c2ccccc2)CC[C@@]1(O)Cn1ccc(-c2ccccc2)cc1=O` [Example 288, 1-(((S)-4-Hydroxy-3,3-dimethyl-1-((R)-2-phenylpiperazine-1-carbonyl)piperidin-4-yl)methyl)-4-phenylpyridin-2(1H)-one], the IC50 was < 0.5 µM.

In the case of `Cn1nccc1-c1cc(=O)n(C[C@]2(O)CCN(C(=O)N3CCNC[C@H]3c3ccccc3)CC23CCCC3)cn1` [Example 289, 3-(((S)-10-Hydroxy-7-((R)-2-phenylpiperazine-1-carbonyl)-7-azaspiro[4.5]decan-10-yl)methyl)-6-(1-methyl-1H-pyrazol-5-yl)pyrimidin-4(3H)-one], the IC50 is < 0.5 µM.

Take `O=C(N1CC[C@@](O)(Cn2cnc(N3CCCC3)cc2=O)C2(CCCC2)C1)N1CCNC[C@H]1c1ccccc1` [Example 290, 3-(((S)-10-Hydroxy-7-((R)-2-phenylpiperazine-1-carbonyl)-7-azaspiro[4.5]decan-10-yl)methyl)-6-(pyrrolidin-1-yl)pyrimidin-4(3H)-one]: the IC50 is < 0.5 µM.
